Experimental data taken from US4728641A, “Ganglioside derivatives” (Burroughs Wellcome Co., priority 1983, dated 1988).

Key:
Plasmodium berghei = assay: In vivo activity against Plasmodium berghei protozoa in mice; design: species or system Swiss male albino mice (Charles River CD1); settings: GM1 P (Example 1) 5 mg/kg s.c. 24 and 2 hours before infection, pyrimethamine 1 mg/kg s.c. days 0, 1 and 2, or both
Procedure: 40 Swiss male albino mice (Charles River CD1) weighing 22±1 g were randomly divided into groups of 10 and injected intraperitoneally with 0.1 ml/10 g of citrated blood of 6-day parasitised mice which had been diluted 1:1000 (v/v) with saline to obtain 1.58×10^6 P. berghei I.S.S./ml. The control group (1) were injected with saline, group 2 with ganglioside GM1 P prepared by the method of Example 1 (5 mg/kg s.c. in saline), group 3 with the known anti-protozoal agent pyrimethamine (1 mg/kg s.c. in CMC 0.25% in water, w/v), and group 4 with both GM1 P and pyrimethamine at the doses stated above. The dose volume was 0.25 ml/10 g. The GM1 P was administered 24 hours and 2 hours before infection (Day 0) and the pyrimethamine on days 0,1 and 2.

[1] = system: Candida albicans (strain CN 7996); assay: In vivo activity against Candida albicans infection in mice; design: species or system Swiss male albino mice (Charles River CD1); settings: cyclophosphamide 50 mg/kg i.v. 96 hours before infection, GM1 P 10 mg/kg s.c. 96 and 24 hours before infection, or both
Procedure: 53 Swiss male albino mice (Charles River CD1) weighing 23±1 g were randomly divided into […] groups of 10, 14, 14 and 15 animals each (groups 1 to 4 respectively). Group 1 animals were injected with saline as a control group; Group 2 were injected with cyclophosphamide 50 mg/kg (0.2 ml/mouse) intravenously 96 hours before infection; Group 3 with cyclophosphamide 50 mg/kg (0.2 ml/mouse) intravenously 96 hours before infection and with GM1 P 10 mg/kg (0.25 ml/10 g) subcutaneously at 96 and 24 hours before infection; and Group 4 with GM1 P 10 mg/kg (0.25 ml/10 g) subcutaneously 96 and 24 hours before infection. The mice were then injected intravenously with 0.225 ml/mouse of an 18 hour culture of Sabouraud glucose broth containing 1.204×10^7 Candida albicans cells/ml (strain CN 7996).

SMILES | Mortality (%) Day 9 (Plasmodium berghei; Day 9) | Mortality (%) Day 13 (Plasmodium berghei; Day 13) | Number alive at Day 23 ([1]; Day 23) | Mean survival time [1]
CCc1nc(N)nc(N)c1-c1ccc(Cl)cc1 [pyrimethamine] | 50% | 90% |  | 
O=P1(N(CCCl)CCCl)NCCCO1 (stereo not shown) [cyclophosphamide] |  |  | 0 | 1.21 days
